In US8735388B2, “Heterocyclic compounds with affinity to muscarinic receptors” (Abbvie B. V. A., priority 2007, dated 2014):
Read-outs that look alike come from different tables or passages of the source.

What was measured:
[1] = molecular target: T1, Muscarine M4 (GPCR-A-MA-ACH M4) (Homo sapiens, UniProt P08173); test: Muscarine M4 receptor binding, 3H-4DAMP; settings: human M4, CHO cells, ligand 0.2 nM, 60 min/22° C., read-out: RB Musc. M4 3H-DAMP pKi (converted)
T1 construct: expressed in transfected cells; host or cells: CHO cells
T1 sequence (P08173 1-479): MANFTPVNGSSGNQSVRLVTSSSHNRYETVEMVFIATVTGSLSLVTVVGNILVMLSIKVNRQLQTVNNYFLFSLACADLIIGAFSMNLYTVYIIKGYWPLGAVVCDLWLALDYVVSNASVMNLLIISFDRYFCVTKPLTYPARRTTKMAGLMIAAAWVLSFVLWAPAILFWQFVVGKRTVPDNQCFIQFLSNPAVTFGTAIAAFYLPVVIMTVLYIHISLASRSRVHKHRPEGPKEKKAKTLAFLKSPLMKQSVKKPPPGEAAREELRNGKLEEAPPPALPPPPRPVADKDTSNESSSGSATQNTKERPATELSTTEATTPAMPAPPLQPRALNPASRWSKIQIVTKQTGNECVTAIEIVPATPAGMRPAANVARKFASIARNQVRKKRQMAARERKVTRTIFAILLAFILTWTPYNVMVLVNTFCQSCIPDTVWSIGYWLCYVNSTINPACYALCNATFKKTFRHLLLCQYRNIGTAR
Protocol: (§1) Compounds were dissolved in DMSO (10 mM) and diluted in assay buffer to test concentration. Prime testing was at 10 μM; for actives (PI, percent inhibition with respect to total and non-specific binding >40%) testing was continued at lower concentrations in 10-fold dilutions: 1 μM, 0.1 μM, etc.
(§2) Following incubation of compound with the receptor preparation (from ‘Tissue’) and the Ligand at the time and temperature indicated, the receptor preparations were rapidly filtered under vacuum through glass fibre filters; the filters were washed extensively with an ice-cold buffer using a harvester. Bound radioactivity was measured by scintillation counting using a liquid scintillation cocktail.
(§3) Results were expressed as percentage of total Ligand binding and that of Non Specific Binding, per concentration of Compound tested (duplicates); from the concentration—displacement curves IC50 values were determined by non-linear regression analysis using Hill equation curve fitting. The inhibition constants (Ki) were calculated from the Cheng-Prushoff equation Ki=IC50/(1+L/Kd), where L is the concentration of radioligand in the assay, and Kd the affinity of the radioligand for the receptor. Results were expressed as pKi's, means±SD of at least 2 separate experiments; i.e. outliers (outside+/−1 std of mean) and discrepancies were excluded.

[2] = molecular target: T1, Muscarine M4 (GPCR-A-MA-ACH M4); test: Muscarine M4 receptor binding, 3H-Oxotremorine
Protocol: as §1, §2, §3

[3] = molecular target: T1, Muscarine M4 (GPCR-A-MA-ACH M4); test: Muscarine M4 cell-based functional assay (CHO cells, Ca2+ - Aequorin luminescence)
Protocol: Compounds were dissolved in DMSO (10 mM) and diluted in assay buffer to test concentration. Prime testing was at 1 μM; for actives in antagonist mode (PI, percent inhibition with respect to reference agonist and blank>30%) as well as actives in agonist mode (PS, percent stimulation with respect to reference agonist and blank>30%) testing was continued at lower concentrations in 10-fold dilutions: 0.1 μM, 0.01 μM, etc.
Cells were incubated with compound and the response indicated was measured.
The results are expressed as a percent of reference agonist values and blanks in the presence of the test compound, percent stimulation for agonist mode; for the antagonist mode (test compound in the presence of reference agonist) as percent inhibition. The EC50 values (concentration causing a half-maximal stimulation of control values), IC50 values (concentration causing a half-maximal inhibition of control values) were determined by non-linear regression analysis of the concentration-response curves using Hill equation curve fitting.

[4] = molecular target: T2, Muscarine M1 (GPCR-A-MA-ACH M1) (Homo sapiens, UniProt P11229); test: Muscarine M1 receptor binding, 3H-Pirenzepine; settings: human M1, CHO cells, ligand 2 nM, 60 min/22° C., read-out: RB Musc. M1 3H-Pirenzepine pKi (converted)
T2 construct: expressed in transfected cells; host or cells: CHO cells
T2 sequence (P11229 1-460): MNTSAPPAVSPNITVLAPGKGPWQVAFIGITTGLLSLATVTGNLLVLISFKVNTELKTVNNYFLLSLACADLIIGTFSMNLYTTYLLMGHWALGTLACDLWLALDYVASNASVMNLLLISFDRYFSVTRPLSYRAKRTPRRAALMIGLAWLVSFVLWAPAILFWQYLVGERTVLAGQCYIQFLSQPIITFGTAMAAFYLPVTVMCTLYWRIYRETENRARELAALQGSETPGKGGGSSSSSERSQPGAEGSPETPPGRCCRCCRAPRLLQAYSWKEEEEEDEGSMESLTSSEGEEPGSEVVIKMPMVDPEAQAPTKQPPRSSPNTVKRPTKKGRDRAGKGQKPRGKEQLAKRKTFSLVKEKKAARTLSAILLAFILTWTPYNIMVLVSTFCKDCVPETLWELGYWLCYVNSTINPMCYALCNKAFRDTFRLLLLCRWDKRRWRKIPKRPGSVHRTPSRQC
Protocol: as §1, §2, §3

[5] = molecular target: T2, Muscarine M1 (GPCR-A-MA-ACH M1); test: Muscarine M1 cell-based functional assay (CHO cells, Ca2+ - FLIPR Fluorimetry); settings: read-out: Cell funct. Musc. M1 Agonism pEC50 (converted)
[6] = human M4, CHO cells, receptor binding, ligand 6 nM, 30 min/25° C., read-out: RB Musc. M4 3H-Oxotremorine pKi (converted)
[7] = human M4, CHO cells, agonist mode, reference agonist oxotremorine, read-out: Cell funct. Musc. M4 Agonism pEC50 (converted)
[8] = human M1, CHO cells, agonist mode, reference agonist acetylcholine

| Structure (SMILES) | Ki [1] [nM] | Ki [2, 6] [nM] | EC50 [3, 7] [nM] | Ki [4] [nM] | EC50 [5, 8] [nM] | Ki [2] [nM] | EC50 [3] [nM] | EC50 [5] [nM] |
| --- | --- | --- | --- | --- | --- | --- | --- | --- |
| C=CCCOc1c[nH]nc1C1=CCCN(C)C1 [Compound 33D, 3-(4-But-3-enyloxy-1H-pyrazol-3-yl)-1,2,5,6-tetrahydro-1-methylpyridine] | 1000 | 1580 | 1260 | 2510 | 100 |  |  |  |
| CCCCCCCC#Cc1c[nH]nc1C1=CCCN(C)C1 [Compound 45C, 3-(4-Non-1-ynyl-1H-pyrazol-3-yl)-1,2,5,6-tetrahydro-1-methylpyridine] | 794 | 501 | 2000 | 794 | > 1000 |  |  |  |
| CCCCOc1c[nH]nc1C1=CCCN(C)C1 [Compound 33C, 3-(4-Butyloxy-1H-pyrazol-3-yl)-1,2,5,6-tetrahydro-1-methylpyridine] | 316 | 1580 | 1260 | 1260 | 126 |  |  |  |
| CCCCCc1c[nH]nc1C1=CCCN(C)C1 [Compound 9, 3-(4-Pentyl-1H-pyrazol-3-yl)-1,2,5,6-tetrahydro-1-methylpyridine] | 316 | 398 | > 10000 | 1260 | 126 |  |  |  |
| CN1CCC=C(c2n[nH]cc2SCCCc2ccccc2)C1 [Compound 22I, 3-[4-(3-Phenyl-propylsulfanyl)-1H-pyrazol-3-yl]-1,2,5,6-tetrahydro-1-methylpyridine] | 251 | 100 | 251 | 794 | 100 |  |  |  |
| CN1CCC=C(c2n[nH]cc2OCCCc2ccccc2)C1 [Compound 33A, 3-[4-(3-Phenyl-propoxy)-1H-pyrazol-3-yl]-1,2,5,6-tetrahydro-1-methylpyridine] | 251 | 501 | 794 | 1260 | 126 |  |  |  |
| CCSc1c[nH]nc1C1CN2CCC1CC2 (stereo not drawn) [Compound 49D, 3-(4-Ethylsulfanyl-1H-pyrazol-3-yl)-1-azabicyclo[2.2.2]octane] | 100 |  |  | 794 |  | 126 | 158 | 39.8 |
| CN1CCC=C(c2n[nH]cc2SCC=Cc2ccccc2)C1 [Compound 22K, 3-[4-(3-Phenyl-allylsulfanyl)-1H-pyrazol-3-yl]-1,2,5,6-tetrahydro-1-methylpyridine] | 631 | 398 | 1260 | 1260 | 100 |  |  |  |
| CCCCCCCOc1c[nH]nc1C1=CCCN(C)C1 [Compound 33E, 3-(4-Heptyloxy-1H-pyrazol-3-yl)-1,2,5,6-tetrahydro-1-methylpyridine] | 316 | 158 | 631 | 1000 | 200 |  |  |  |
| COCCOCCSc1c[nH]nc1C1=CCCN(C)C1 [Compound 22P, 3-{4-[2-(2-Methoxy-ethoxy)-ethylsulfanyl]-1H-pyrazol-3-yl}-1,2,5,6-tetrahydro-1-methylpyridine] | 6310 | 6310 | 1260 | > 10000 | 398 |  |  |  |
| FC(F)=CCCSc1c[nH]nc1C1CN2CCC1CC2 (stereo not drawn) [Compound 49I, 3-[4-(4,4-Difluoro-but-3-enylsulfanyl)-1H-pyrazol-3-yl]-1-azabicyclo[2.2.2]octane] | 63.1 |  |  | 316 |  | 12.6 | 20 | 3.16 |
| CCCCCCC=Cc1c[nH]nc1C1=CCCN(C)C1 [Compound 47C, 3-(4-Oct-1-enyl-1H-pyrazol-3-yl)-1,2,5,6-tetrahydro-1-methylpyridine] | 794 | 251 | 631 | 794 | 794 |  |  |  |
| CCCCCC#Cc1c[nH]nc1C1=CCCN(C)C1 [Compound 45B, 3-(4-Hept-1-ynyl-1H-pyrazol-3-yl)-1,2,5,6-tetrahydro-1-methylpyridine] | 1260 | 501 | 316 | 2000 | 126 |  |  |  |
| CCCCC#Cc1c[nH]nc1C1=CCCN(C)C1 [Compound 45A, 3-(4-Hex-1-ynyl-1H-Pyrazol-3-yl)-1,2,5,6-tetrahydro-1-methylpyridine] | 631 | 398 | 794 | 1580 | 126 |  |  |  |
| Ic1c[nH]nc1[C@@H]1CN2CCC[C@H]1C2 [Compound 59, endo-6-(4-iodo-1H-pyrazol-3-yl)-1-azabicyclo[3.2.1]octane] | 100 |  |  | 1000 |  | 200 | > 10000 | 79.4 |
| CCCCCCSc1c[nH]nc1C1=CCCN(C)C1 [Compound 22H, 3-(4-Hexylsulfanyl-1H-pyrazol-3-yl)-1,2,5,6-tetrahydro-1-methylpyridine] | 63.1 | 126 | 10 | 200 | 126 |  |  |  |
| CCCCSc1c[nH]nc1[C@@H]1CN2CCC[C@H]1C2 (relative stereo) [Compound 60B, Endo-6-(4-butylsulfanyl-1H-pyrazol-3-yl)-1-azabicyclo[3.2.1]octane] | 158 |  | > 10000 | 398 | > 1000 | 251 |  |  |
| CCCCC=Cc1c[nH]nc1C1=CCCN(C)C1 [Compound 47A, 3-(4-Hex-1-enyl-1H-pyrazol-3-yl)-1,2,5,6-tetrahydro-1-methylpyridine] | 794 | 251 | 501 | 2510 | 158 |  |  |  |

Second part, led by results:

| Ki [1] [nM] | Ki [2, 6] [nM] | EC50 [3, 7] [nM] | Ki [4] [nM] | EC50 [5, 8] [nM] | Structure (SMILES) | Ki [2] [nM] | EC50 [3] [nM] | EC50 [5] [nM] |
| --- | --- | --- | --- | --- | --- | --- | --- | --- |
| 251 | 631 | 794 | 1580 | 200 | CCCCC=Cc1conc1C1=CCCN(C)C1 [Compound 68A, 3-(4-Hex-1-enyl-isoxazol-3-yl)-1,2,5,6-tetrahydro-1-methylpyridine] |  |  |  |
| 200 | 251 | 631 | 1000 | 251 | CCCCCC#Cc1conc1C1=CCCN(C)C1 [Compound 70A, 3-(4-Hept-1-ynyl-isoxazol-3-yl)-1,2,5,6-tetrahydro-1-methylpyridine] |  |  |  |
| 1000 | 794 | 794 | 5010 | 794 | CCCCCCC=Cc1conc1C1=CCCN(C)C1 [Compound 68B, 3-(4-Oct-1-enyl-isoxazol-3-yl)-1,2,5,6-tetrahydro-1-methylpyridine] |  |  |  |
